The text below walks through data of publication PMC7416410, “Synthesis, molecular docking and molecular dynamic simulation studies of 2-chloro-5-[(4-chlorophenyl)sulfamoyl]-N-(alkyl/aryl)-4-nitrobenzamide derivatives as antidiabetic agents” (BMC Chemistry, 2020).

The term IC50 denotes the concentration at which inhibition is half-maximal. As usually defined, the melting point is the temperature of the solid-liquid transition.

Data set [1] deals with T1, α-Glucosidase from Saccharomyces cerevisiae (Saccharomyces cerevisiae, UniProt P53341).
T1 construct: purchased Sigma Aldrich
Put plainly: α-Glucosidase inhibitory assay. Type of data set: biochemical. As to conditions: for IC50: in vitro. An excerpt:
The analytical grade chemicals and reagents were used as such in experiments without any purification. Decibel melting point apparatus was used for checking the melting point of the synthesized compounds and are reported as uncorrected. The silica gel-precoated aluminum sheets for thin-layer chromatography (TLC) were employed to keep a vigil of the reaction progress.
The method adopted for performing α-glucosidase inhibitory assay was similar to our prevenient study, Thakral and Singh.

A further data set has as its target α-amylase from malt. Description: α-Amylase inhibitory assay. Format: biochemical. As to conditions: for IC50: in vitro. The source says: The analytical grade chemicals and reagents were used as such in experiments without any purification. Decibel melting point apparatus was used for checking the melting point of the synthesized compounds and are reported as uncorrected. The silica gel-precoated aluminum sheets for thin-layer chromatography (TLC) were employed to keep a vigil of the reaction progress. FT-IR (Diffuse Reflectance Method (DRS) -8000A, Shimadzu, Japan) spectrophotometer was utilized for recording infrared spectra and the Bruker Avance III, 400 MHz NMR spectrometer was employed for nuclear magnetic resonance spectra (^1H NMR, ^13C NMR; Chemical shift δ values- ppm). α-Glucosidase from Saccharomyces cerevisiae (EC 3.2.1.20, Sigma Aldrich) and α-amylase from malt (232-588-1, HiMedia) have been used for in vitro studies.
Xiao et al., and Yoshikawa et al., illustrated a method, with little modification this method has been adopted for measuring the activity.

T1 sequence (P53341 whole entry): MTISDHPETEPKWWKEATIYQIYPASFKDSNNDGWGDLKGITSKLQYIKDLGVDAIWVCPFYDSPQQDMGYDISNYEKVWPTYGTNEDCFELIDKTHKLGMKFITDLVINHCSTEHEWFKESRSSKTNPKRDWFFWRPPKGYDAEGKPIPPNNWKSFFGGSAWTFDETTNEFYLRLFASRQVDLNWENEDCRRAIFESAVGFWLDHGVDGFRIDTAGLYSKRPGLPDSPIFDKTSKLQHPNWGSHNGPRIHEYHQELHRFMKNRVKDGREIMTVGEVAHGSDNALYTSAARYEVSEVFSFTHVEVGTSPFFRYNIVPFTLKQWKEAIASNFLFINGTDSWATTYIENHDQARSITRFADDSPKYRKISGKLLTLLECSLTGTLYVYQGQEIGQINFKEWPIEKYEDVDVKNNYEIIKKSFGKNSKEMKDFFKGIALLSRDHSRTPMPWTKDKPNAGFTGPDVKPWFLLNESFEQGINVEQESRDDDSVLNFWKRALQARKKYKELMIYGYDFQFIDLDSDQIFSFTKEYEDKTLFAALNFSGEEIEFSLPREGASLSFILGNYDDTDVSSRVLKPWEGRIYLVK

The molecule `O=C(Nc1ccc([N+](=O)[O-])cc1)c1cc(S(=O)(=O)Nc2ccc(Cl)cc2)c([N+](=O)[O-])cc1Cl` [Compound 5q] returned a melting point of 177 to 179 °C. Moreover, in data set [1], 43.9 ± 1.18 µM corresponded to half-maximal inhibition (IC50). On α-amylase from malt, this molecule showed an IC50 of 11.2 ± 0.67 µM.

In turn, `O=C(Nc1cccc([N+](=O)[O-])c1)c1cc(S(=O)(=O)Nc2ccc(Cl)cc2)c([N+](=O)[O-])cc1Cl` [Compound 5r, 2-Chloro-5-[(4-chlorophenyl)sulfamoyl]-4-nitro-N-(3-nitrophenyl)benzamide] displayed a melting point of 135 to 137 °C. Also, the half-maximal inhibitory concentration (IC50) in data set [1] is 34.4 ± 0.62 µM. In addition, the IC50 on α-amylase from malt came out at 15.3 ± 1.24 µM.

For the molecule `COc1ccc(NC(=O)c2cc(S(=O)(=O)Nc3ccc(Cl)cc3)c([N+](=O)[O-])cc2Cl)cc1` [Compound 5d, 2-Chloro-5-[(4-chlorophenyl)sulfamoyl]-N-(4-methoxyphenyl)-4-nitrobenzamide], the melting point lay within 150 to 152 °C. Moreover, half-maximal inhibition in data set [1] (IC50) required 38.57 ± 0.01 µM. On α-amylase from malt, this molecule registered a half-maximal inhibitory concentration (IC50) of 38 ± 0.51 µM.

`O=C(Nc1ccccc1Br)c1cc(S(=O)(=O)Nc2ccc(Cl)cc2)c([N+](=O)[O-])cc1Cl` [Compound 5h, N-(2-Bromophenyl)-2-chloro-5-[(4-chlorophenyl)sulfamoyl]-4-nitrobenzamide]: the melting point is 180 to 182 °C. Besides, in data set [1], the IC50 is 40.6 ± 1.49 µM. Half-maximal inhibition against α-amylase from malt (IC50) required 19.3 ± 0.63 µM.

Take `C[C@H]1O[C@H](O[C@H]2[C@H](O)[C@@H](O)[C@@H](O[C@H]3[C@H](O)[C@@H](O)C(O)O[C@@H]3CO)O[C@@H]2CO)[C@H](O)[C@@H](O)[C@@H]1N[C@H]1C=C(CO)[C@@H](O)[C@H](O)[C@H]1O` (stereo partly drawn) [Acarbose, reference compound]: the IC50 against α-amylase from malt was determined as 5.6 ± 0.3 µM.

Regarding `Cc1cc([N+](=O)[O-])ccc1NC(=O)c1cc(S(=O)(=O)Nc2ccc(Cl)cc2)c([N+](=O)[O-])cc1Cl` [Compound 5p, 2-Chloro-5-[(4-chlorophenyl)sulfamoyl]-N-(2-methyl-4-nitrophenyl)-4-nitrobenzamide], the melting point fell in the range of 104 to 106 °C. Besides, the IC50 in data set [1] was 19.5 ± 0.43 µM. For the same molecule, the IC50 against α-amylase from malt is 2.1 ± 0.52 µM.

`COc1ccccc1NC(=O)c1cc(S(=O)(=O)Nc2ccc(Cl)cc2)c([N+](=O)[O-])cc1Cl` [Compound 5e, 2-Chloro-5-[(4-chlorophenyl)sulfamoyl]-N-(2-methoxyphenyl)-4-nitrobenzamide] displayed a melting point of 164 to 166 °C. The midpoint of inhibition in data set [1], the IC50, lay at 41.7 ± 1.08 µM. Besides, on α-amylase from malt, the 50% inhibitory concentration (IC50) was found to be 50.3 ± 0.21 µM.

In turn, `O=C(Nc1cccc(Br)c1)c1cc(S(=O)(=O)Nc2ccc(Cl)cc2)c([N+](=O)[O-])cc1Cl` [Compound 5g, N-(3-Bromophenyl)-2-chloro-5-[(4-chlorophenyl)sulfamoyl]-4-nitrobenzamide] gave a melting point of 181 to 183 °C. In data set [1], this molecule had a half-inhibitory concentration (IC50) of 35.9 ± 0.6 µM. The molecule also came in with a 50% inhibitory concentration (IC50) against α-amylase from malt of 16.7 ± 0.41 µM.

Turning to `O=C(Nc1ccc(Br)cc1)c1cc(S(=O)(=O)Nc2ccc(Cl)cc2)c([N+](=O)[O-])cc1Cl` [Compound 5f, N-(4-Bromophenyl)-2-chloro-5-[(4-chlorophenyl)sulfamoyl]-4-nitrobenzamide], the melting point was 200 to 202 °C. In addition, the midpoint of inhibition in data set [1], the IC50, lay at 50.2 ± 0.89 µM. At α-amylase from malt, this molecule had a concentration for half-maximal inhibition (IC50) of 16 ± 0.33 µM.

`O=C(Nc1ccccc1[N+](=O)[O-])c1cc(S(=O)(=O)Nc2ccc(Cl)cc2)c([N+](=O)[O-])cc1Cl` [Compound 5k, 2-Chloro-5-[(4-chlorophenyl)sulfamoyl]-4-nitro-N-(2-nitrophenyl)benzamide]: the melting point lay in the range of 150 to 152 °C. Further, the IC50 in data set [1] is 36.9 ± 1.3 µM. The molecule further showed a half-maximal inhibitory concentration (IC50) at α-amylase from malt of 12.5 ± 0.91 µM.

Molecule `O=C(Nc1ccncc1)c1cc(S(=O)(=O)Nc2ccc(Cl)cc2)c([N+](=O)[O-])cc1Cl` [Compound 5v, 2-Chloro-5-[(4-chlorophenyl)sulfamoyl]-4-nitro-N-(pyridin-4-yl)benzamide] yielded a melting point of 197 to 199 °C. Also, the IC50 in data set [1] was 52.4 ± 1.92 µM. The molecule further gave a half-inhibitory concentration (IC50) at α-amylase from malt of 40.4 ± 0.87 µM.

`Cc1cccc(NC(=O)c2cc(S(=O)(=O)Nc3ccc(Cl)cc3)c([N+](=O)[O-])cc2Cl)c1` [Compound 5b, 2-Chloro-5-[(4-chlorophenyl)sulfamoyl]-N-(3-methylphenyl)-4-nitrobenzamide] registered a melting point of 102 to 104 °C. In data set [1], this molecule registered an IC50 of 24.8 ± 2.69 µM. The same molecule displayed an IC50 against α-amylase from malt of 5.3 ± 1.23 µM.

On to `O=C(NCc1ccco1)c1cc(S(=O)(=O)Nc2ccc(Cl)cc2)c([N+](=O)[O-])cc1Cl` [Compound 5u, 2-Chloro-5-[(4-chlorophenyl)sulfamoyl]-N-[(furan-2-yl)methyl]-4-nitrobenzamide], for which the melting point fell in the range of 191 to 193 °C. In data set [1], this molecule yielded an IC50 of 89 ± 1.76 µM. For the same molecule, half-maximal inhibition against α-amylase from malt (IC50) required 38.2 ± 0.34 µM.

Molecule `O=C(Nc1ccc([N+](=O)[O-])cc1Cl)c1cc(S(=O)(=O)Nc2ccc(Cl)cc2)c([N+](=O)[O-])cc1Cl` [Compound 5n, 2-Chloro-N-(2-chloro-4-nitrophenyl)-5-[(4-chlorophenyl)sulfamoyl]-4-nitrobenzamide] gave a melting point of 214 to 216 °C. Moreover, the IC50 in data set [1] was 29.5 ± 1.53 µM. For the same molecule, the IC50 against α-amylase from malt worked out at 35.3 ± 0.45 µM.

In turn, `Cc1ccc([N+](=O)[O-])cc1NC(=O)c1cc(S(=O)(=O)Nc2ccc(Cl)cc2)c([N+](=O)[O-])cc1Cl` [Compound 5o, 2-Chloro-5-[(4-chlorophenyl)sulfamoyl]-N-(2-methyl-5-nitrophenyl)-4-nitrobenzamide] registered a melting point of 203 to 205 °C. Moreover, the “inhibitory potential against α-glucosidase in comparison to standard drug acarbose” value in data set [1] (fold relative to acarbose) was “fourfold”. The midpoint of inhibition in data set [1], the IC50, lay at 10.8 ± 0.52 µM. Moreover, in the data set on α-amylase from malt (fold relative to acarbose), the “inhibitory activity against α-amylase in comparison to standard drug acarbose” value was “around six times”. This molecule showed an IC50 on α-amylase from malt of 0.9 ± 0.31 µM.

For `Cc1c(NC(=O)c2cc(S(=O)(=O)Nc3ccc(Cl)cc3)c([N+](=O)[O-])cc2Cl)cccc1[N+](=O)[O-]` [Compound 5m, 2-Chloro-5-[(4-chlorophenyl)sulfamoyl]-N-(2-methyl-3-nitrophenyl)-4-nitrobenzamide], the melting point fell in the range of 170 to 172 °C. In data set [1], this molecule gave an IC50 of 24.5 ± 1.23 µM. This molecule registered an IC50 at α-amylase from malt of 1.52 ± 0.84 µM.

`Cc1ccc(NC(=O)c2cc(S(=O)(=O)Nc3ccc(Cl)cc3)c([N+](=O)[O-])cc2Cl)cc1` [Compound 5a, 2-Chloro-5-[(4-chlorophenyl)sulfamoyl]-N-(4-methylphenyl)-4-nitrobenzamide] displayed a melting point of 90 to 92 °C. The IC50 in data set [1] worked out at 31.4 ± 1.66 µM. This molecule came in with a concentration for half-maximal inhibition (IC50) at α-amylase from malt of 7.4 ± 0.15 µM.

Regarding `O=C(Nc1cccc(Cl)c1)c1cc(S(=O)(=O)Nc2ccc(Cl)cc2)c([N+](=O)[O-])cc1Cl` [Compound 5i, 2-Chloro-N-(3-chlorophenyl)-5-[(4-chlorophenyl)sulfamoyl]-4-nitrobenzamide], the melting point lay in the range of 220 to 222 °C. Further, the IC50 in data set [1] came to 14 ± 0.93 µM. This molecule also showed an IC50 on α-amylase from malt of 27.1 ± 0.51 µM.

Consider `CCCNC(=O)c1cc(S(=O)(=O)Nc2ccc(Cl)cc2)c([N+](=O)[O-])cc1Cl` [Compound 5s, 2-Chloro-5-[(4-chlorophenyl)sulfamoyl]-4-nitro-N-propylbenzamide], for which the melting point fell in the range of 116 to 118 °C. Besides, in data set [1], half-maximal inhibition (IC50) required 106.2 ± 0.61 µM. Also, at α-amylase from malt, half-maximal inhibition (IC50) required 48.05 ± 0.23 µM.

On to `Cc1c(Cl)cccc1NC(=O)c1cc(S(=O)(=O)Nc2ccc(Cl)cc2)c([N+](=O)[O-])cc1Cl` [Compound 5l, 2-Chloro-N-(3-chloro-2-methylphenyl)-5-[(4-chlorophenyl)sulfamoyl]-4-nitrobenzamide], for which the melting point was 212 to 214 °C. In data set [1], this molecule displayed a half-maximal inhibitory concentration (IC50) of 29 ± 0.86 µM. At α-amylase from malt, this molecule had an IC50 of 6.3 ± 0.42 µM.

As for `CCCCNC(=O)c1cc(S(=O)(=O)Nc2ccc(Cl)cc2)c([N+](=O)[O-])cc1Cl` [Compound 5t, N-Butyl-2-chloro-5-[(4-chlorophenyl)sulfamoyl]-4-nitrobenzamide], the melting point was in the range of 111 to 113 °C. In data set [1], this molecule gave an IC50 of 131 ± 2.42 µM. Further, the half-inhibitory concentration (IC50) on α-amylase from malt stood at 55.1 ± 0.71 µM.

On to `O=C(Nc1ccccc1Cl)c1cc(S(=O)(=O)Nc2ccc(Cl)cc2)c([N+](=O)[O-])cc1Cl` [Compound 5j, 2-Chloro-N-(2-chlorophenyl)-5-[(4-chlorophenyl)sulfamoyl]-4-nitrobenzamide], for which the melting point is 176 to 178 °C. Moreover, the half-maximal inhibitory concentration (IC50) in data set [1] came out at 15.8 ± 0.9 µM. Moreover, the concentration for half-maximal inhibition (IC50) on α-amylase from malt came to 20.9 ± 1.24 µM.

Consider `Cc1ccccc1NC(=O)c1cc(S(=O)(=O)Nc2ccc(Cl)cc2)c([N+](=O)[O-])cc1Cl` [Compound 5c, 2-Chloro-5-[(4-chlorophenyl)sulfamoyl]-N-(2-methylphenyl)-4-nitrobenzamide], for which the melting point fell in the range of 88 to 90 °C. The same molecule showed an IC50 in data set [1] of 26.8 ± 1.13 µM. On α-amylase from malt, this molecule registered an IC50 of 8 ± 0.71 µM.
